Tests used:
[1] = system: LK-2 (Squamous Cell Lung Carcinoma); assay: Bliss excess, mean over the matrix (fraction); higher = more synergy
Method in brief: (§1)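 After 24 hours at 37°C and 5% CO2 in 1536-well plates, cells in DMEM/F12 or RPMI plus 10% FBS received two-drug dose matrices for 72 hours. Viability came from CellTiter-Glo 2.0 luminescence and was scaled as inhibition, anchored at 0 by vehicle wells and at 1 by blank wells. Combination Emax is taken as the second-highest inhibition in the matrix, and Bliss excess as the observed combination effect less EA + EB − EA·EB, with EA and EB the single-agent effects.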

[2] = system: PC-3_[JPC-3] (Lung Adenocarcinoma); assay: as above
Method in brief: as §1

[3] = system: MFE-280 (Endometrial Carcinoma); assay: as above
Method in brief: as §1

[4] = system: SF539 (Glioblastoma); assay: as above
Method in brief: as §1

[5] = system: OVMIU (Ovarian Carcinoma); assay: as above
Method in brief: as §1

[6] = system: PSN1 (Pancreatic Carcinoma); assay: as above
Method in brief: as §1

[7] = system: RCM-1 (Colorectal Carcinoma); assay: as above
Method in brief: as §1

[8] = system: PANC-03-27 (Pancreatic Carcinoma); assay: as above
Method in brief: as §1

[9] = system: HSC-39 (Gastric Carcinoma); assay: as above
Method in brief: as §1

[10] = system: NCI-H2342 (Lung Adenocarcinoma); assay: as above
Method in brief: as §1

[11] = system: RKN (Other Solid Carcinomas); assay: as above
Method in brief: as §1

[12] = system: SK-PN-DW (Other Solid Carcinomas); assay: as above
Method in brief: as §1

[13] = system: OPM-2 (Plasma Cell Myeloma); assay: as above
Method in brief: as §1

[14] = system: L-1236 (Hodgkin's Lymphoma); assay: as above
Method in brief: as §1

[15] = system: REH (B-Lymphoblastic Leukemia); assay: as above
Method in brief: as §1

[16] = system: COLO-680N (Esophageal Squamous Cell Carcinoma); assay: as above
Method in brief: as §1

[17] = system: SF539 (Glioblastoma); assay: combination Emax (second highest fraction inhibited in the dose matrix, 72 h); higher = more inhibition; extreme values may be limits of the assay
Method in brief: as §1

[18] = system: RCM-1 (Colorectal Carcinoma); assay: as above
Method in brief: as §1

[19] = system: OPM-2 (Plasma Cell Myeloma); assay: as above
Method in brief: as §1

[20] = system: COLO-680N (Esophageal Squamous Cell Carcinoma); assay: as above
Method in brief: as §1
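Throughout, for Bliss excess, mean over the matrix: after 72 h of two-drug dosing.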

| SMILES | Bliss excess [1] | Bliss excess [2] | Bliss excess [3] | Bliss excess [4] | Bliss excess [5] | Bliss excess [6] | Bliss excess [7] | Bliss excess [8] | Bliss excess [9] | Bliss excess [10] | Bliss excess [11] | Bliss excess [12] | Bliss excess [13] | Bliss excess [14] | Bliss excess [15] | Bliss excess [16] | combination Emax [17] | combination Emax [18] | combination Emax [19] | combination Emax [20] |
| --- | --- | --- | --- | --- | --- | --- | --- | --- | --- | --- | --- | --- | --- | --- | --- | --- | --- | --- | --- | --- |
| O=C(c1cc(Cc2n[nH]c(=O)c3ccccc23)ccc1F)N1CCN(C(=O)C2CC2)CC1 [Olaparib] + CN(CC[C@H](CSC1=CC=CC=C1)NC2=C(C=C(C=C2)S(=O)(=O)NC(=O)C3=CC=C(C=C3)N4CCC(CC4)[C@H](C5=CC=CC=C5C6=CC=C(C=C6)Cl)O)S(=O)(=O)C(F)(F)F)CCO [AZD4320] (first compound max 10 µM, 7x7, partner max 1 µM) | 0.0748 | -0.0525 | 0.0045 | -0.017 | -0.0979 | -0.0224 | -0.0431 | -0.0341 | -0.0172 | -0.018 | -0.0407 | 0.0012 | 0.0334 | -0.0506 | 0.0835 | -0.0598 | 0.463 | 0.17 | 0.337 | 0.11 |
| CN(CCO)CC[C@H](CSc1ccccc1)Nc1ccc(S(=O)(=O)NC(=O)c2ccc(N3CCC([C@@H](O)c4ccccc4-c4ccc(Cl)cc4)CC3)cc2)cc1S(=O)(=O)C(F)(F)F [AZD4320] + CC(=O)O[C@H]1C(=O)[C@@]2(C)[C@H]([C@H](OC(=O)c3ccccc3)[C@]3(O)C[C@H](OC(=O)[C@H](O)[C@@H](NC(=O)c4ccccc4)c4ccccc4)C(C)=C1C3(C)C)[C@]1(OC(C)=O)CO[C@@H]1C[C@@H]2O [Paclitaxel] (first compound max 1 µM, 7x7, partner max 3 µM) | 0.0318 | 0.0232 | 0.171 | 0.0404 | 0.0232 | 0.0166 | 0.0793 | 0.0599 | 0.0069 | 0.0455 | 0.0901 | 0.0738 | 0.023 | 0.0186 | 0.0132 | 0.092 | 1 | 0.54 | 1 | 0.771 |
| Cc1cc2ncnn2cc1Nc1ncc2c(n1)n(C1CCOCC1)c(=O)n2C [AZD7648] + COc1cc([C@@H]2c3cc4c(cc3[C@@H](O[C@@H]3O[C@@H]5CO[C@@H](C)O[C@H]5[C@H](O)[C@H]3O)[C@H]3COC(=O)[C@H]23)OCO4)cc(OC)c1O [Etoposide] (first compound max 10 µM, 7x7, partner max 10 µM) | 0.0713 | 0.0079 | -0.0236 | 0.136 | 0.0243 | 0.0771 | 0.0309 | -0.0401 | 0.0582 | 0.0597 | 0.0299 | 0.184 | -0.0072 | 0.0004 | 0.158 | 0.0384 | 0.934 | 0.515 | 0.788 | 0.404 |
| CN(CCO)CC[C@H](CSc1ccccc1)Nc1ccc(S(=O)(=O)NC(=O)c2ccc(N3CCC([C@@H](O)c4ccccc4-c4ccc(Cl)cc4)CC3)cc2)cc1S(=O)(=O)C(F)(F)F [AZD4320] + Nc1ccn([C@@H]2O[C@H](CO)[C@@H](O)C2(F)F)c(=O)n1 [Gemcitabine] (first compound max 1 µM, 7x7, partner max 0.3 µM) | 0.083 | 0.016 | -0.0216 | -0.0356 | 0.0028 | -0.0027 | -0.0271 | -0.0203 | -0.0867 | 0.0364 | -0.0164 | -0.0422 | 0.0089 | -0.0377 | 0.0126 | -0.08 | 0.945 | 0.37 | 0.628 | 0.3 |

From the supplement of paper PMC11061612
